The text below walks through data of article PMC7156724, “Potent BRD4 inhibitor suppresses cancer cell-macrophage interaction” (Nature Communications, 2020).

Several values for one entry are separate records, joined by “and”; a condition that tells them apart may be missing. Identical values can stand only once.

The test system of one test is A2780 OC cells and TAMs. Kind of test: Orthotopic mouse OC model (intraperitoneal A2780 cells, with or without TAMs): tumor weight, ascitic fluid, IF and FACS. The test is classed as in vivo. The text has this: Shown are immunofluorescent staining of CD68 (macrophage marker, red) and E-Cadherin (cancer cells, green) (a) and quantification of CD68 positive cells (b) in vehicle, NHWD-870 treated H526 (n = 6) and A2780 (n = 5) tumors from Fig. 3a, b, respectively. Scale bar is 100 μm. […] Shown are representative immunofluorescent staining of Ki67 and CD68 (c) and quantification of percentage of Ki67+ cells in CD68+ cells (d). Scale bar is 30 μm. Data are presented as mean ± SEM of five different tumors. e Schematics of the animal experiments using an orthotopic mouse OC model, established by intraperitoneally injecting human A2780 cells into female recipient nude mice. Mice were then either untreated (Ctrl) or treated with NHWD-870 (PO, QD, 3 mg/kg) for 45 days. Half of the recipient mice received A2780 cells plus TAMs isolated from tumors of OC-bearing donor mice. f, g Tumor weights (f) and ascitic fluid volumes (g) at day 45 for mice in (e). […] Shown are representative immunofluorescent staining of Ki67 and CD68 (h) and quantification of Ki67^+CD68^− (i) or Ki67^+CD68^+ (j), or CD68^+ cells (k). Scale bar is 50 μm. Data are presented as mean ± SEM from five different mice. p values were calculated using two-tailed, unpaired t tests in this figure. *p < 0.05; **p < 0.01; ***p < 0.001. Source data are provided as a Source Data file.
To extend our findings, we examined the effects of NHWD-870 in an orthotopic mouse OC model, in which we intraperitoneally injected A2780 OC cells, alone or together with F4/80^+CD11b^+CD206^+ TAMs isolated from the tumor tissues of OC-bearing donor mice 3 days later (Fig. 4e). […] These phenotypes were due to increased proliferation of both tumor cells and macrophages (Ki67^+CD68^− and Ki67^+CD68^+ cells, respectively) (Fig. 4h–i, Ctrl+TAM vs Ctrl). […] The inability to rescue was not due to the limited amount of TAMs (Fig. 4k, CD68^+ cells and Supplementary Fig.11c, d, CD11b^+CD206^+ cells, NHWD-870+TAM vs Ctrl), but likely due to the limited number of proliferating TAMs (Fig. 4j, Ki67^+CD68^+ cells, NHWD-870+TAM vs Ctrl).
4–6 weeks old female BALB/c nude mice were used for most experiments, with the exception of 6–8 weeks old female C57BL/6 mice were used for B16F10 experiments, and 6–8 weeks old male BALB/c nude mice and SD rats were used for pharmacokinetic experiments. All animals were purchased from Shanghai SIPPR-Bk Lab Animal Co., Ltd. All animals were housed under a regimen of 12 h light/12 h dark cycles and specific pathogen-free conditions. 5×10^6 NCI-H526, ES-2, MDA-MB231, A2780, A375, B16F10, and TMD-8 cells (0.1 ml) were injected subcutaneously into female nude mice. The melanoma patient-derived xenograft model was derived from a human melanoma sample (BRAF, NARS and NF1 wild type, and p53 mutant) removed from a patient in Xiangya Hospital. Surgically removed tumor fragments were implanted subcutaneously into female NSG mice. […] Mouse body weight and tumor sizes were measured every 3 days. […] Ascitic volume and tumor weight were measured by an electronic balance. All the procedures were evaluated and approved by the Institutional Animal Care and Use Committee of Central South University and Yale University. […]
with anti-CD45, CD11b and CD206 followed by FACS analysis. Shown are representative FACS plots (c) and quantification of the percentage of CD11b+CD206+ cells (d). Data are presented as mean ± SEM from 5 different mice. p values were calculated using two-tailed, unpaired t tests. **, p<0.01; ***, p<0.001. […]

The test system of test [1] is TAMs (CD11b+F4/80+ cells) in A375 melanoma model. The test is described as follows: FACS analysis of TAMs in A375 tumors. Conditions: day 21, FACS. It is filed as in vivo, mouse. As for the experimental part:
Flow cytometry analyses were performed using antibodies listed in Supplementary Table 8. For cell surface markers, mouse TAM suspensions were stained with mouse APC-CD45, FITC-CD11b, PE-F4/80 or APC-F4/80, CD68, and PE-CD206 antibodies for 15 min on ice. For Ki67 staining, cells were fixed in 4% paraformaldehyde and stained with FITC-Ki67. Isotype matching antibody served as the negative control. Flow cytometry was performed on a FACSCalibur (BD Biosciences). Data were analyzed with BD CellQuest Pro software version 5.1.
(a,b) Tumors from A375 tumor bearing mice in Figure 3e were harvested at day 21 and stained with anti-CD45, CD11b, F4/80, CD68 and Ki67 followed by FACS analysis. Shown are representative FACS plots (a ) and quantification of the percentage of CD11b+F4/80+ and CD11b+F4/80+CD68+Ki67+ cells (b). Data are presented as mean ± SEM from 5 different mice. p values were calculated using two-tailed, unpaired t tests.
**, p<0.01; ***, p<0.001. (c,d) Tumors from mice described in Figure 4e were harvested at day 45 and stained […]
In general terms: In flow cytometry, cells or beads pass a laser one at a time.

Setting [2] is: day 45, PO, QD, 3 mg/kg, +TAM, 3 mg/kg.

Turning to `Cc1nnn(C)c1-c1cnc2c3c4cnn(C)c4ccc3n([C@H](c3ccccc3)C3CCOCC3)c2c1` [NHWD-870], in the test with A2780 OC cells and TAMs (setting [2]), the “quantification of CD68+ cells” value was 15 and 17.9 and 19.9 and 12 and 16.7; the “quantification of Ki67+CD68− cells” value was 10 and 7 and 13 and 9. The “fold reduction, in vivo effects on TAMs” value with A2780 OC cells and TAMs (in vivo) was ~ 16 fold. Also, in the test with A2780 OC cells and TAMs (mouse OC model, Fig. 4j), the “inhibition of proliferating TAMs” value was found to be 94%. In the test on A2780 OC cells and TAMs (mouse OC model, Fig. 4j, Ctrl […]), the “proliferating TAMs (Ki67+CD68+ cells), mean” value is 0.16%. The “number of TAMs (CD11b+F4/80+ cells) or proliferating TAMs” value in test [1] was “decreased the number of TAMs”.
